Results on 11 compounds are retold here after PubChem BioAssay (NCI).

Among the test systems are OVCAR-8 ovarian; SK-OV-3 ovarian; CAKI-1 renal; A498 renal; EKVX NSCLC; IGROV1 ovarian; LOX IMVI melanoma; DLD-1 colon; SNB-19 CNS; HOP-62 NSCLC; T-47D breast.
Holding throughout (assay): NCI anticancer screen, dose series, 48 h

Several values for one entry are separate records, joined by “and”; a condition that tells them apart may be missing. Equal entries are not always repeated.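 Tested at 5 concentrations; 48 h exposure; 96-well plates; endpoints linearly interpolated, else capped at highest concentration. Here, GI50 denotes the concentration required for 50% inhibition of growth. TGI denotes the concentration required for complete inhibition of growth.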

With `CC(C)=CCc1c(O)ccc2ccc(=O)oc12`, the TGI in the assay with OVCAR-8 ovarian, in the assay with SK-OV-3 ovarian, with CAKI-1 renal, in the assay on A498 renal, with EKVX NSCLC and with IGROV1 ovarian was over 100 µM in each case. In addition, the TGI in the assay on LOX IMVI melanoma, in the assay with DLD-1 colon and in the assay on SNB-19 CNS was over 100 µM throughout.
In the case of `COc1cccc2c1C(=O)c1c(O)c3c(c(O)c1C2=O)C[C@@](O)(C(=O)CO)C[C@@H]3OC1CC(N)C(OC)C(C)O1` (stereo partly specified), the TGI in the assay on OVCAR-8 ovarian was determined as 1.21 µM; in the assay with HOP-62 NSCLC, 0.354 µM; with SK-OV-3 ovarian, 4.41 µM; in the assay with A498 renal, 0.582 µM; in the assay on EKVX NSCLC, 9.35 µM; with T-47D breast, 1.73 µM. Further, the TGI in the assay on IGROV1 ovarian is 16.4 µM; with LOX IMVI melanoma it was 0.181 µM; with DLD-1 colon, 3.37 µM; in the assay with SNB-19 CNS it was over 15.8 µM.
Consider `COc1cc(/C=C/C(=O)O)ccc1C(=O)OCc1ccccc1`, for which the TGI with OVCAR-8 ovarian, with HOP-62 NSCLC, with SK-OV-3 ovarian, with A498 renal, in the assay with EKVX NSCLC and with IGROV1 ovarian was over 100 µM each time. Moreover, the TGI with LOX IMVI melanoma, with DLD-1 colon and with SNB-19 CNS was over 100 µM each time.
On to `CC12CCC3C(CCC4=CC(O)CCC43C=O)C1(O)CCC2c1ccc(=O)oc1` (stereo unspecified), for which the GI50 in the assay with OVCAR-8 ovarian was 0.05 µM; in the assay on HOP-62 NSCLC, 0.00158 µM; in the assay with SK-OV-3 ovarian, 0.05 µM; with CAKI-1 renal, 0.008 µM; in the assay on A498 renal, 0.05 µM; in the assay on IGROV1 ovarian, 0.05 µM. Further, the GI50 in the assay with LOX IMVI melanoma is 0.05 µM; in the assay on DLD-1 colon, 0.00769 µM; in the assay on SNB-19 CNS, 0.05 µM. In addition, the TGI was 0.0532 µM and 0.0526 µM with OVCAR-8 ovarian; 0.0147 µM and 0.0573 µM in the assay on HOP-62 NSCLC; 0.0404 µM and 0.0713 µM in the assay on SK-OV-3 ovarian; 0.0627 µM with CAKI-1 renal; 0.0418 µM and 0.113 µM in the assay on A498 renal; 0.059 µM in the assay with EKVX NSCLC. Besides, the TGI was 0.0936 µM and 0.141 µM in the assay on IGROV1 ovarian; 0.0571 µM with DLD-1 colon; 0.0224 µM and 0.101 µM in the assay on SNB-19 CNS.
Turning to `CC(C)=C1C(=O)C[C@]2(C)C[C@H]3/C(=C(/C)CCC12)CC[C@@]3(C)O` (stereo partly specified), the TGI in the assay with OVCAR-8 ovarian, in the assay with HOP-62 NSCLC, with SK-OV-3 ovarian, in the assay with CAKI-1 renal, with A498 renal and in the assay on EKVX NSCLC was over 50 µM throughout. Further, the TGI in the assay with T-47D breast, in the assay with IGROV1 ovarian, in the assay with LOX IMVI melanoma and in the assay with SNB-19 CNS was over 50 µM in each case.
As to `Cc1ccsc1/C=N/Nc1ccc2ccccc2n1`, the TGI with OVCAR-8 ovarian is over 100 µM; in the assay with HOP-62 NSCLC it was 68.8 µM; in the assay on SK-OV-3 ovarian it was 48 µM; in the assay on CAKI-1 renal, over 100 µM; in the assay with A498 renal, over 100 µM; in the assay on EKVX NSCLC, over 100 µM. Further, the TGI with T-47D breast is over 100 µM; in the assay on IGROV1 ovarian it was 79.3 µM; in the assay with LOX IMVI melanoma it was over 100 µM; in the assay with SNB-19 CNS, over 100 µM.
`CCCC(O)C(NC(=O)CCl)C(=O)O` (stereo unspecified): the TGI in the assay on OVCAR-8 ovarian, with HOP-62 NSCLC, in the assay on SK-OV-3 ovarian, in the assay with CAKI-1 renal, in the assay on A498 renal and in the assay with EKVX NSCLC was over 100 µM in each case. The TGI in the assay with IGROV1 ovarian, in the assay on LOX IMVI melanoma, in the assay on DLD-1 colon and with SNB-19 CNS was over 100 µM in each case.
On to `Nc1nc2c(ncn2Cc2ccc(CO)cc2)c(=O)[nH]1`, for which the TGI with OVCAR-8 ovarian, with HOP-62 NSCLC, with SK-OV-3 ovarian, with CAKI-1 renal, in the assay with A498 renal and with EKVX NSCLC was over 100 µM each time. Further, the TGI in the assay on T-47D breast, in the assay with IGROV1 ovarian, with LOX IMVI melanoma and in the assay with SNB-19 CNS was over 100 µM in each case.
With `CN(C)/C=N/n1c2ccccc2c2ccccc21`, the TGI in the assay with OVCAR-8 ovarian is over 100 µM; in the assay on HOP-62 NSCLC, over 100 µM; in the assay on SK-OV-3 ovarian, over 100 µM; with CAKI-1 renal it was 75.8 µM; with A498 renal it was over 100 µM; in the assay on EKVX NSCLC, over 100 µM. The TGI in the assay on T-47D breast, in the assay on IGROV1 ovarian, in the assay on LOX IMVI melanoma and in the assay on SNB-19 CNS was over 100 µM each time.
`CCCCn1c(C)c2c(c1C)C(=O)N(CC(O)CN1CCc3ccccc3C1)C2=O` (stereo unspecified): the TGI in the assay with OVCAR-8 ovarian, in the assay with HOP-62 NSCLC, in the assay with SK-OV-3 ovarian, in the assay on CAKI-1 renal, with A498 renal and in the assay on EKVX NSCLC was over 100 µM each time. For the same compound, the TGI with T-47D breast, in the assay with IGROV1 ovarian, with LOX IMVI melanoma and in the assay with SNB-19 CNS was over 100 µM throughout.
As to `O=C1C[C@H]2[C@@H](O1)[C@@H](O)CN1C(=O)c3ccccc3[C@H]21`, the TGI in the assay with OVCAR-8 ovarian, with HOP-62 NSCLC, with SK-OV-3 ovarian, in the assay on CAKI-1 renal, in the assay with A498 renal and in the assay on EKVX NSCLC was over 100 µM throughout. The TGI in the assay on T-47D breast, in the assay with IGROV1 ovarian, with LOX IMVI melanoma and in the assay on SNB-19 CNS was over 100 µM in each case.
